Structures are written as SMILES.

One data set concerns HCT-116 cells. Also on record: method as in doi:10.1134/S1068162020030061. Conditions: cited from earlier work.
The test system of the next data set is CACO-2 cells. Also noted: method as in doi:10.1134/S1068162020030061. As to conditions: cited from earlier work.
Another data set concerns BHK cells. Also on record: method as in doi:10.1134/S1068162020030061. Conditions: cited from earlier work.
The test system of data set [1] is HepG2 (human hepatocellular cancer cell line) cells. The experiment in a line: anti-proliferation assay, MTT, HepG2 cells. The data set is classed as cell-based. As to conditions: read-out: GI50 HepG2γ. As for the experimental part: (§1) In this section, the anti-proliferation activity of the synthesized compounds 3a–3t was evaluated. Herein, HeLa (human epithelial cervical cancer cell line), HepG2 (human hepatoellular carcinoma cell line) and L02 (human normal hepatocyte line) cells were used. According to the affection on L02 cells, most of the tested compounds were low-toxic. […] Basically, many of the compounds in this series could inhibit the growth of HeLa and HepG2 cells effectively. The anti-proliferation inhibitory activity and the enzymatic inhibition potency indicated the consistent tendencies; the SAR of the observed anti-proliferation activity was also similar to that of the enzymatic inhibition, especially that of PI3Kγ inhibition; thus, the cellular inhibition might be caused by the effect on PI3K. […] Thus, HepG2 cells were selected to conduct further investigations at the protein level.
(§2) In this section, the cells included HeLa (human epithelial cervical cancer cell line), HepG2 (human hepatocellular cancer cell line) and L02 (human normal hepatocyte line) to evaluate the anti-proliferation activity of the synthesized compounds. The cells were cultured in Dulbecco’s modified eagle medium (DMEM, Hyclone) with the addition of 10% fetal bovine serum (FBS, BI), 2 mmol/L L-glutamine, 100 units/mL penicillin-streptomycin (Sigma-Aldrich, Saint Louis, MO, USA), […] (Hyclone, Logan, UT, USA). The environment was 5% CO2 contained atmosphere at 37 °C. The tests of anti-proliferative activity were conducted under a standard method with the typical dye 3-(4,5-dimethylthiazol-2-yl)-2,5-diphenyltetrazolium bromide (MTT) in triplicate. The LX300 Epson Diagnostic micro-plate reader (Nagano, Japan) was used to record the absorbance at 570 nm (OD570).

A further data set has as its target T1, PI3Kγ (Homo sapiens, UniProt P48736).
T1 construct: purchased Perkin–Elmer
As to the kind of experiment: competitive fluorescence polarization kinase activity assay, PI3Kγ. In kind it is biochemical. Conditions: for IC50: fluorescence polarization kinase kit. The text has this:
(§3) Initially, we directly tested the inhibition potency of the synthesized compounds on PI3K by using competitive fluorescence polarization kinase kits, as mentioned in previous investigations. […] According to the significance and research maturity of the isoforms as referenced, the PI3Kα and PI3Kγ isoforms were preliminarily included here.
(§4) The competitive fluorescence polarization kinase activity assay was used to test the inhibition potency on PI3K, as mentioned in previous investigations. In general, following the instruction of the Kit (Perkin–Elmer, Waltham, MA, USA), the 10 μL scale of PI3K activity reaction was conducted with the substrate diC8-PI(4,5)P2 in a solution containing 2.5 mM MgCl2, 5 mM HEPES, […] and 10 mM DTT at pH 7.0. Into the 10 μL reaction wells with 50 ng enzyme and […], different concentrations of the tested compounds were added, respectively. The mixture was incubated at room temperature for 3 h, and the reactions were then quenched. Afterwards, the phosphoinositide binding protein and the fluorescent dye-labeled phosphoinositide tracer were added in sequence. In the dark environment in 384-well black nonbinding plates (Corning, Corning, NY, USA), the further incubation lasted for 1 h. With appropriate filters, the polarization values of the corresponding dye were recorded to calculate the enzymatic activity of PI3K in this reacting procedure. This assay was universal for evaluating the activity of different PI3K isoforms.

Data set [2] is described as follows: cytotoxicity, MTT, L02 cells. The data set is classed as cell-based. Conditions: human, L02 cells (human normal hepatocyte line). As for the experimental part: as §1, §2
A further data set has as its target T2, PI3Kα (Homo sapiens, UniProt P42336).
T2 construct: purchased Perkin–Elmer
As to the kind of experiment: competitive fluorescence polarization kinase activity assay, PI3Kα. In kind it is biochemical. Conditions: fluorescence polarization kinase kit.
Excerpt: as §3, §4

For data set [3], the system named is HeLa (human epithelial cervical cancer cell line) cells. As to the kind of experiment: anti-proliferation assay, MTT, HeLa cells. In kind it is cell-based. The method, then:
as §1, §2

Data set [4] relates to PI3K-mediated Akt phosphorylation in HepG2 cells. The experiment in a line: Western blot of Akt and p-Akt in HepG2 cells. The data set is classed as cell-based, human. Conditions: 24 h, 0, 0.25, 0.50, 1.00 μM, with increasing concentration. As for the experimental part:
For the evaluation of PI3Kγ activity, the downstream signal of PI3Kγ should be checked. Commonly, in the PI3K-Akt-mTOR pathway, the activation of PI3K mediated the phosphorylation of Akt and then triggered the following biological events. Herein, Western blot was conducted to visualize the expression levels of Akt and p-Akt (phosphorylated Akt) in HepG2 cells after incubation with various concentrations of the top hit 3s (Figure 2). GAPDH was used as the internal reference to guarantee cell status. […] This meant that compound 3s has the potential to cause dose-dependent blocking on the PI3K-mediated Akt phosphorylation.
According to the results of the anti-proliferation assay, HepG2 cells were chosen to be incubated with the compound 3s for 24 h. The cells were then trypsinized and collected. Afterwards, the extracting of the total proteins was conducted with a 1 × RIPA lysis buffer (1% NP-40, 50 mM Tris-HCl, 150 mM NaCl, 0.25% deoxycholic acid, 1 mM EDTA containing protease inhibitors PMSF, pH 7.4,) (Amresco, Solon, OH, USA). […]
Figure 2 (A) The expression levels of Akt, phosphorylated Akt (p-Akt) and GAPDH in HepG2 cells incubated with various concentrations of compound 3s (0, 0.25, 0.50, 1.00 μM); (B) Quantitation analysis of the p-Akt level. Data were expressed as Mean ± SD (n = 3). * p < 0.05, ** p < 0.01 and *** p < 0.005 vs. the control.

T2 sequence (P42336 whole entry, species assumed): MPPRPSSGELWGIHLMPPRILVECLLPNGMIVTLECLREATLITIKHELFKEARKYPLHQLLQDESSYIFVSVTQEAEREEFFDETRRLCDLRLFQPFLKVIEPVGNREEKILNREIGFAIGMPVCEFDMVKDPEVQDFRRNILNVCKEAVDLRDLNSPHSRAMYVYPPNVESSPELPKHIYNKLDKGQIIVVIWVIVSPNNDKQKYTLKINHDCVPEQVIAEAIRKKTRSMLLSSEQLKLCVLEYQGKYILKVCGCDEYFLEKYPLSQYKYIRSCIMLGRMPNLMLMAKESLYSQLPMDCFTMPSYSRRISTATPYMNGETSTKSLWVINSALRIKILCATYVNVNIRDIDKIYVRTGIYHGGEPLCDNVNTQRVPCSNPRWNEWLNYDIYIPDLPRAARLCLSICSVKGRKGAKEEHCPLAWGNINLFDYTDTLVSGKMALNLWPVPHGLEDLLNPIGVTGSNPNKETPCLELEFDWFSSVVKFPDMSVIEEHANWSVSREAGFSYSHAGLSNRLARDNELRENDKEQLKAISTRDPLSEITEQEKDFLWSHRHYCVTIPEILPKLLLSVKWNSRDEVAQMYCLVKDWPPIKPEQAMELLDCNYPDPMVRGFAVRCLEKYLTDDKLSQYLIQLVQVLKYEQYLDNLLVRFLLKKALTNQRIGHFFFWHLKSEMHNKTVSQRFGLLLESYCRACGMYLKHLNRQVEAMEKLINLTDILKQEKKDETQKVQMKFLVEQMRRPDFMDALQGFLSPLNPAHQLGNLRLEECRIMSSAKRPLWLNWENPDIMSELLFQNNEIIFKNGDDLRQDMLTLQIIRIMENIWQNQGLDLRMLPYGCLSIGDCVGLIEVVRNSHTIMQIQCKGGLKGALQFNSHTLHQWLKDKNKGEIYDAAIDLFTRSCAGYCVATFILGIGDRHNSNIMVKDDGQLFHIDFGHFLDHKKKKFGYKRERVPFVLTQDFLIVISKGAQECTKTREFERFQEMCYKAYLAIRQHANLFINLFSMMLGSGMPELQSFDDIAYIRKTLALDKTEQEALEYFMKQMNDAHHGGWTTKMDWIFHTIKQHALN
T2 sequence (P27986 whole entry partner, species assumed): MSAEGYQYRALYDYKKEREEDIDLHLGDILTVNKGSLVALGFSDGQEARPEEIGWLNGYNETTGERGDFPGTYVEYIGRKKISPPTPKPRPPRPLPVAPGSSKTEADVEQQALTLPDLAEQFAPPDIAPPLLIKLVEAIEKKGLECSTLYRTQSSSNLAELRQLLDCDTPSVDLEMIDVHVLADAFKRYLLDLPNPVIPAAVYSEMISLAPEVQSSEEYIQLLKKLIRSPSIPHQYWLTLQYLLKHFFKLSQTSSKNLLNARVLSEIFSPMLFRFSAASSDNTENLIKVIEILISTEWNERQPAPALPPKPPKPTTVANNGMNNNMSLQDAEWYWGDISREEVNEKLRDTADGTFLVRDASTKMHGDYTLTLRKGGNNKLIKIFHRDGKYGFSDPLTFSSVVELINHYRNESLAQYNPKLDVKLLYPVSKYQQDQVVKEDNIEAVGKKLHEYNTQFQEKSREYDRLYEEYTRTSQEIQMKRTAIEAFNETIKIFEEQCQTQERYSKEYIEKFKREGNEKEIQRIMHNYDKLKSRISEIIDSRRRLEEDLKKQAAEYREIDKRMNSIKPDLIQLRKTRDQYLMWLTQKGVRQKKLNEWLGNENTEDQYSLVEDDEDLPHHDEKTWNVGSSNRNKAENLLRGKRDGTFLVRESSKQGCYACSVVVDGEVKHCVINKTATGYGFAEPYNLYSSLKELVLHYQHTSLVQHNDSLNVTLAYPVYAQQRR
T1 sequence (P48736 whole entry, species assumed): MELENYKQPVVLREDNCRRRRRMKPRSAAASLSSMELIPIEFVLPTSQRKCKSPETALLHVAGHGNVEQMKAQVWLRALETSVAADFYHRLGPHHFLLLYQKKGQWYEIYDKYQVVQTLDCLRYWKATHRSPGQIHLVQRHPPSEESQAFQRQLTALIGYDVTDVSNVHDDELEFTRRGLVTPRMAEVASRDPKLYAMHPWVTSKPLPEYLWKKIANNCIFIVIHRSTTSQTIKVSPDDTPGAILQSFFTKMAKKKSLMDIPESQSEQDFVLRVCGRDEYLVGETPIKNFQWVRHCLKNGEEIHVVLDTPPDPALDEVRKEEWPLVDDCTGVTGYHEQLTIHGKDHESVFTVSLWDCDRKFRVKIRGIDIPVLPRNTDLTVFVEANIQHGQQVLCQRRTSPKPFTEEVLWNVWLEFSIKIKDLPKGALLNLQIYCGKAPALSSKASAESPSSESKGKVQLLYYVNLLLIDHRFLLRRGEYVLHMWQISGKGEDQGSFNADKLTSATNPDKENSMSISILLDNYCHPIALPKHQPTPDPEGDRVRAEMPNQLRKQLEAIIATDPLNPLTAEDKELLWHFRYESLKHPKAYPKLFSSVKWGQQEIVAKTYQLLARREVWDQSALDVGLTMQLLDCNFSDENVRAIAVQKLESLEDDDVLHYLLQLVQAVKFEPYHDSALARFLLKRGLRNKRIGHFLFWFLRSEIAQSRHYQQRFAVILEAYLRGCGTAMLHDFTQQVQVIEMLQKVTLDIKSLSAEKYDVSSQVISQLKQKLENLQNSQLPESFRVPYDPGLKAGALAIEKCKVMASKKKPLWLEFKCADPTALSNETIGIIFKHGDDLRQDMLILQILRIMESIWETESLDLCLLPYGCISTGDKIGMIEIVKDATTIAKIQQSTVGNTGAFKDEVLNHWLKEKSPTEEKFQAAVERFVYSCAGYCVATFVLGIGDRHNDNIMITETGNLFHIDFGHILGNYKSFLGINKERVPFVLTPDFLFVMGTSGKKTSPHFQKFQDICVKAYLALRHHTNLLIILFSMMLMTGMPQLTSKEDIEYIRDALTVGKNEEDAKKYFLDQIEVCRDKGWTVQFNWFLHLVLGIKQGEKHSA

With `CCOC(=O)c1sc(N2N=C(c3cccs3)CC2c2ccccc2)nc1C` (stereo not drawn) [ethyl-4-methyl-2-(5-phenyl-3-(thiophen-2-yl)-4,5-dihydropyrazol-1-yl)thiazole-5-carboxylate], the anti-tumor activity result in the data set on HCT-116 cells and with CACO-2 cells was “potent anti-tumor activity” in each case. In the data set on BHK cells, the cytotoxicity result is recorded as “no cytotoxicity”.
In the case of `COc1ccc(C(=O)N2N=C(c3ccc(C)c(C)c3)CC2c2cccs2)cc1OC` (stereo not drawn) [3r, (3,4-Dimethoxyphenyl)(3-(3,4-dimethylphenyl)-5-(thiophen-2-yl)-4,5-dihydro-1H-pyrazol-1-yl)methanone], the melting point was in the range of 104 to 106 °C. Also, in data set [1], the GI50 turned out to be 5.55 ± 0.41 µM. This compound returned an IC50 at PI3Kγ of 1.37 ± 0.055 µM. The CC50 in data set [2] came out at 52.5 ± 3.2 µM. For the same compound, the IC50 on PI3Kα was 4.13 ± 0.062 µM. The compound further came in with a GI50 in data set [3] of 6.2 ± 0.22 µM.
On to `COc1ccc(C(=O)N2N=C(c3ccc4ccccc4c3)CC2c2cccs2)cc1OC` (stereo not drawn) [3n, (3,4-Dimethoxyphenyl)(3-(naphthalen-2-yl)-5-(thiophen-2-yl)-4,5-dihydro-1H-pyrazol-1-yl)methanone], for which the melting point lay within 149 to 151 °C. For the same compound, the GI50 in data set [1] worked out at 8.85 ± 0.31 µM. Further, the IC50 on PI3Kγ was 1.79 ± 0.049 µM. This compound registered a CC50 in data set [2] of 62.6 ± 2.6 µM. Moreover, the IC50 on PI3Kα worked out at 12 ± 1.1 µM. Moreover, the GI50 in data set [3] is 11.1 ± 1.2 µM.
Consider `COc1ccc(C(=O)N2N=C(c3ccc(Br)cn3)CC2c2cccs2)cc1OC` (stereo not drawn) [3t, (3-(5-Bromopyridin-2-yl)-5-(thiophen-2-yl)-4,5-dihydro-1H-pyrazol-1-yl)(3,4-dimethoxyphenyl)methanone], for which the melting point was 77 to 79 °C. In addition, the 50% growth inhibitory concentration (GI50) in data set [1] worked out at 110 ± 8.1 µM. In addition, the IC50 on PI3Kγ is 9.15 ± 0.14 µM. In addition, the CC50 in [2] was > 300 µM. The IC50 at PI3Kα was > 100 µM. The compound further displayed a GI50 in data set [3] of 124 ± 9.7 µM.
Compound `COc1ccc(C(=O)N2N=C(c3ccc4c(c3)OCO4)CC2c2cccs2)cc1OC` (stereo not drawn) [3s, (3-(Benzo[d][1,3]dioxol-5-yl)-5-(thiophen-2-yl)-4,5-dihydro-1H-pyrazol-1-yl)(3,4-dimethoxyphenyl)methanone] registered a melting point of 138 to 140 °C. For the same compound, the GI50 in data set [1] is 12.9 ± 1.3 µM. In data set [4], the Akt level entry is listed as “almost remained unchanged” and the p-Akt level result is reported as “obvious decrease”. For the same compound, the 50% inhibitory concentration (IC50) on PI3Kγ is 0.066 ± 0.005 µM. In addition, the selectivity index on PI3Kγ (ratio of the IC50 values for PI3Kα and PI3Kγ) turned out to be 645. In data set [2], this compound came in with a CC50 of 181 ± 9 µM. On PI3Kα, the half-maximal inhibitory concentration (IC50) was found to be 42.6 ± 2.9 µM. For the same compound, in data set [3], the GI50 came out at 13.7 ± 1.1 µM.
`COc1ccc(C(=O)N2N=C(c3ccccc3)CC2c2cccs2)cc1OC` (stereo not drawn) [3a, (3,4-Dimethoxyphenyl)(3-phenyl-5-(thiophen-2-yl)-4,5-dihydro-1H-pyrazol-1-yl)methanone] returned a melting point of 141 to 143 °C. Further, the GI50 in data set [1] was found to be 61.1 ± 3.2 µM. The IC50 at PI3Kγ was 7.48 ± 0.22 µM. For the same compound, the midpoint of cytotoxicity in [2], the CC50, lay at 174 ± 10 µM. Moreover, on PI3Kα, the IC50 is > 100 µM. Further, the GI50 in data set [3] amounted to 109 ± 5.8 µM.

The values above are taken from paper PMC9027920, “Development of New Thiophene-Containing Triaryl Pyrazoline Derivatives as PI3Kγ Inhibitors” (Molecules, 2022).
